# In publication PMC9858421 (Journal of Enzyme Inhibition and Medicinal Chemistry, 2023):
# Entries after “also recorded” stand apart in the source; their conditions may differ. Where two headings read alike, the source gives them in different places.
# What was measured:
# [1] = target: T1, hVDAC1 (Homo sapiens, UniProt P21796); assay: MST binding check; conditions: 100 nM hVDAC1, highest soluble ligand concentration
# [2] = target: T1, hVDAC1; assay: NanoDSF thermal shift; format: binding; conditions: hVDAC1 in LDAO; compared to hVDAC1 alone at 0% or 5% DMSO
# [3] = target: T1, hVDAC1; assay: MST dose-response experiment; format: binding
# [4] = target: rVDAC1; conditions: cited from earlier work
# [5] = test system: VDAC1; conditions: PLB, cited from earlier work
# [6] = target: T1, hVDAC1; conditions: read-out: Published Kd; cited from earlier work
# [7] = MST dose-response, 100 nM hVDAC1, 16 concentrations
# T1 sequence (P21796 whole entry): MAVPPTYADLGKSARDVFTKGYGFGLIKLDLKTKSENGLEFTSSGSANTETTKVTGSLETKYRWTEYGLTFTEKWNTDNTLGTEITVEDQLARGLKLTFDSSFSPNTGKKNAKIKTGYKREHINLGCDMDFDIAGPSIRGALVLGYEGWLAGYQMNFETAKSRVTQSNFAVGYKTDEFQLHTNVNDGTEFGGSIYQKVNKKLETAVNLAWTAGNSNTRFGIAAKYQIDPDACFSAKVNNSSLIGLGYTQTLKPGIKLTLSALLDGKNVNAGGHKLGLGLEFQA
Structure (SMILES),MST Binding Check [1],"Tm shift in NanoDSF (direction / significance, in words) [2]",Kd [3],further results
CC(=O)Oc1ccccc1C(=O)O [Aspirin],Positive,–,–,MST Binding Check ([1]; listed as aspirin): validated by binding check
C=C(C)[C@@H]1CCC(C)=C[C@H]1c1c(O)cc(CCCCC)cc1O [Cannabidiol],Positive,increase the Tm; also recorded: positive,6 ± 2 µM,"Kd [3, 7]: < 10 µM; Kd ([4]; read-out: Published Kd, listed as cannabidiol): 11 µM; Kd ([4]; read-out: Published Kd): 11.2 µM; Effect(s) on activity ([5]; MST): Reduces conductance Increases mitochondrial Ca^2+"
O.Oc1cc(O)c2c(c1)O[C@H](c1ccc(O)c(O)c1)[C@@H](O)C2 [Catechin],–,increase the Tm; also recorded: significant Tm shift,–,–
COc1cc(/C=C/C(=O)CC(=O)/C=C/c2ccc(O)c(OC)c2)ccc1O [Curcumin],Positive,negative Tm shift,6 ± 1 µM,"Kd [3, 7]: < 10 µM; Effect(s) on activity [5]: Reduces conductance by promoting closed state(s)"
C(=NC1CCCCC1)=NC1CCCCC1 [DCCD],Positive,increase the Tm,–,"Effect(s) on activity ([5]; NMR, [14C] DCCD-labelled VDAC1): Reduces conductance Inhibits HK-VDAC1 binding"
O=C(O)c1ccccc1Nc1ccccc1 [DPC],validated by binding check; also recorded: Positive,negative Tm shift,–,Kd ([4]; read-out: Published Kd): 150 µM; Effect(s) on activity ([5]; MST): Reduces conductance Prevents oligomerization
Cc1cc(O)c2c(c1)C(=O)c1cc(O)cc(O)c1C2=O [Emodin],Positive,not been confirmed as VDAC1 ligands; also recorded: no significant changes in Tm,10 ± 5 µM,MST Binding Check ([1]; listed as emodin): binding was shown
CNCCC(Oc1ccc(C(F)(F)F)cc1)c1ccccc1 (centres unmarked) [Fluoxetine],–,–,–,Effect(s) on activity [5]: Reduces conductance Prevents Cyto C release
NC(=O)C1=CN([C@@H]2O[C@H](COP(=O)(O)OP(=O)(O)OC[C@H]3O[C@@H](n4cnc5c(N)ncnc54)[C@H](O)[C@@H]3O)[C@@H](O)[C@H]2O)C=CC1 [NADH],validated by binding check; also recorded: Positive,not been confirmed as VDAC1 ligands,–,Kd [6]: 9000 µM; Effect(s) on activity ([5]; NMR): Affects gating without reducing the conductance Sterically closes the channel
CC(C)c1cccc(C(C)C)c1O [Propofol],Positive,increase the Tm,> 650 µM,Effect(s) on activity [5]: Promotes closure when a negative voltage is applied No effects on open state conductance

# Further lines, with some results ahead:
MST Binding Check [1],"Tm shift in NanoDSF (direction / significance, in words) [2]",Kd [3],Structure (SMILES),further results
Positive,–,5 ± 2 µM,CCC(C)n1ncn(-c2ccc(N3CCN(c4ccc(OCC5COC(Cn6cncn6)(c6ccc(Cl)cc6Cl)O5)cc4)CC3)cc2)c1=O (centres unmarked) [Itraconazole],MST Binding Check ([1]; listed as itraconazole): binding was shown; Kd ([4]; read-out: Published Kd): 120 µM
Positive,not been confirmed as VDAC1 ligands,–,CN(C)C(=N)N=C(N)N [Metformin],MST Binding Check ([1]; listed as metformin): validated by binding check; Effect(s) on activity ([5]; MST): Reduces conductance No binding observed by MST
Positive,negative Tm shift,–,CC(C)CCC[C@@H](C)[C@H]1CC[C@H]2[C@@H]3CCC4=CC(=NO)CC[C@]4(C)[C@H]3CC[C@]12C [Olesoxime],MST Binding Check ([1]; listed as olesoxime): validated by binding check; Effect(s) on activity [5]: Reduces conductance
Positive,negative Tm shift,–,C=C[C@H]1C[N@@]2CC[C@H]1C[C@@H]2[C@@H](O)c1ccnc2ccc(OC)cc12 [Quinidine],MST Binding Check ([1]; listed as quinidine): validated by binding check
